Test results: ChEMBL document CHEMBL1201862, “PubChem BioAssay data set” (2004)
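Following 48 hours of exposure in 96-well plates, responses at five concentrations were used to interpolate endpoints linearly. At the GI50, growth is halved.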 The source made the active and inactive calls. Cut-off read from the data, not from the text of the source: active = GI50 up to about 1.1 µM and inactive = higher.

Assays:
Test in all cases: NCI anticancer screen, dose series, 48 h
A549 = tested on: A549
EKVX = tested on: EKVX
HCC 2998 = tested on: HCC 2998
HOP-62 = tested on: HOP-62
LOX IMVI = tested on: LOX IMVI
MCF7 = tested on: MCF7
NCI-H226 = tested on: NCI-H226
NCI-H23 = tested on: NCI-H23
NCI-H522 = tested on: NCI-H522
OVCAR-8 = tested on: OVCAR-8
SF-539 = tested on: SF-539
SK-MEL-2 = tested on: SK-MEL-2
SK-OV-3 = tested on: SK-OV-3
SNB-19 = tested on: SNB-19
U-251 = tested on: U-251
UACC-62 = tested on: UACC-62
UO-31 = tested on: UO-31
XF498 = tested on: XF498
HOP-92 = tested on: HOP-92
TK-10 = tested on: TK-10

Row | SMILES | GI50 (A549) | GI50 (EKVX) | GI50 (HCC 2998) | GI50 (HOP-62) | GI50 (LOX IMVI) | GI50 (MCF7) | GI50 (NCI-H226) | GI50 (NCI-H23) | GI50 (NCI-H522) | GI50 (OVCAR-8) | GI50 (SF-539) | GI50 (SK-MEL-2) | GI50 (SK-OV-3) | GI50 (SNB-19) | GI50 (U-251) | GI50 (UACC-62) | GI50 (UO-31) | GI50 (XF498) | GI50 (HOP-92) | GI50 (TK-10)
1 | CSc1nc(SC)c2cnn(CC3CO3)c2n1 (stereo not drawn) | 25.4 µM (inactive) | 29.3 µM (inactive) | 17.4 µM (inactive) | 18.7 µM (inactive) | 7.59 µM (inactive) | 9.44 µM (inactive) | 17.9 µM (inactive) | 18.6 µM (inactive) | 26.2 µM (inactive) | 9.18 µM (inactive) | 19.5 µM (inactive) | 16.7 µM (inactive) | 30.8 µM (inactive) | 31.2 µM (inactive) | 19.1 µM (inactive) | 19.2 µM (inactive) | 19.5 µM (inactive) | 22.4 µM (inactive) | – | –
2 | Cc1cc(N(CCOS(C)(=O)=O)CCOS(C)(=O)=O)ccc1C=O | 0.979 µM (active) | 3.61 µM (inactive) | 4.65 µM (inactive) | – | 6.68 µM (inactive) | 1.22 µM (inactive) | – | 3.68 µM (inactive) | 0.142 µM (active) | 10.9 µM (inactive) | < 0.01 µM (active) | 21.1 µM (inactive) | – | 10.2 µM (inactive) | 8.36 µM (inactive) | 2.43 µM (inactive) | 2.88 µM (inactive) | – | 9.73 µM (inactive) | 2.91 µM (inactive)
3 | CCOC(=O)C1=C(C)N(c2ccc(OC)cc2)C2(O)C=CC(O)=C3C(=O)c4ccccc4C(=O)C312 (stereo not drawn) | 11.1 µM (inactive) | 7.43 µM (inactive) | – | 13.8 µM (inactive) | 7.16 µM (inactive) | 6.03 µM (inactive) | – | 16.1 µM (inactive) | 2.57 µM (inactive) | 14.9 µM (inactive) | 6.92 µM (inactive) | 16.3 µM (inactive) | 13.4 µM (inactive) | 13 µM (inactive) | 8.49 µM (inactive) | 12.5 µM (inactive) | 13.9 µM (inactive) | – | 2.25 µM (inactive) | 11 µM (inactive)
4 | O=C(NN1C(=O)C(Cl)C1c1ccc([N+](=O)[O-])cc1)c1ccccc1O (stereo not drawn) | > 100 µM (inactive) | > 100 µM (inactive) | – | > 100 µM (inactive) | – | – | – | > 100 µM (inactive) | > 100 µM (inactive) | > 100 µM (inactive) | > 100 µM (inactive) | > 100 µM (inactive) | > 100 µM (inactive) | 68.1 µM (inactive) | > 100 µM (inactive) | > 100 µM (inactive) | > 100 µM (inactive) | 93.1 µM (inactive) | > 100 µM (inactive) | > 100 µM (inactive)
5 | CC(=O)NC(c1nc2cc(C)c(C)cc2[nH]1)c1nc2cc(C)c(C)cc2[nH]1 | 21.3 µM (inactive) | 24.3 µM (inactive) | 16.9 µM (inactive) | – | 19 µM (inactive) | 23.9 µM (inactive) | – | 32.2 µM (inactive) | 5.12 µM (inactive) | 20 µM (inactive) | 14.1 µM (inactive) | 36.8 µM (inactive) | 17.7 µM (inactive) | 41.5 µM (inactive) | 20.9 µM (inactive) | 32.7 µM (inactive) | 25.4 µM (inactive) | – | 19.8 µM (inactive) | 28.1 µM (inactive)
6 | COc1cccc2c1C(=O)c1c(O)c3c(c(O)c1C2=O)CC(O)(C(=O)CO)CC3OC1CC(N)C(I)C(C)O1 (stereo not drawn) | 0.736 µM (active) | 14.4 µM (inactive) | 13.5 µM (inactive) | 1.6 µM (inactive) | 1.45 µM (inactive) | 1.17 µM (inactive) | 0.787 µM (active) | 2.28 µM (inactive) | 2.9 µM (inactive) | 3.58 µM (inactive) | 2.62 µM (inactive) | 9.79 µM (inactive) | 3.98 µM (inactive) | 3.12 µM (inactive) | 2.7 µM (inactive) | 1.58 µM (inactive) | 4.88 µM (inactive) | 6.64 µM (inactive) | 9.68 µM (inactive) | –
7 | CC(C)N1CSC(=S)N(Cc2ccccc2)C1 | > 10 µM (inactive) | > 10 µM (inactive) | > 10 µM (inactive) | > 10 µM (inactive) | 3.66 µM (inactive) | 4.16 µM (inactive) | – | 3.1 µM (inactive) | – | 4.75 µM (inactive) | 1.48 µM (inactive) | – | > 10 µM (inactive) | 0.752 µM (active) | > 10 µM (inactive) | 4.06 µM (inactive) | – | – | 2.84 µM (inactive) | 3.61 µM (inactive)
8 | c1ccc(C(c2ccccc2)[P+](c2ccccc2)(c2ccccc2)c2ccccc2)cc1 | 0.422 µM (active) | 4.7 µM (inactive) | 0.365 µM (active) | 0.867 µM (active) | 0.265 µM (active) | 0.449 µM (active) | 0.684 µM (active) | 0.45 µM (active) | 0.223 µM (active) | 0.542 µM (active) | 1.27 µM (inactive) | 0.305 µM (active) | 0.596 µM (active) | 0.526 µM (active) | 0.431 µM (active) | 0.332 µM (active) | 0.951 µM (active) | 0.214 µM (active) | 0.543 µM (active) | –
9 | Nc1nc2cc(COc3ccc(C(=O)O)cc3)ccc2nc1-c1ccccc1 | > 10 µM (inactive) | > 10 µM (inactive) | > 10 µM (inactive) | > 10 µM (inactive) | > 10 µM (inactive) | > 10 µM (inactive) | > 10 µM (inactive) | > 10 µM (inactive) | > 10 µM (inactive) | – | > 10 µM (inactive) | > 10 µM (inactive) | > 10 µM (inactive) | > 10 µM (inactive) | > 10 µM (inactive) | > 10 µM (inactive) | > 10 µM (inactive) | – | > 10 µM (inactive) | > 10 µM (inactive)
10 | Nc1c(S(=O)(=O)O)cc2cc(S(=O)(=O)O)ccc2c1/N=N/c1ccc(-c2ccc(/N=N/c3c(N)c(S(=O)(=O)O)cc4cc(S(=O)(=O)O)ccc34)c(S(=O)(=O)O)c2)cc1 | > 83.4 µM (inactive) | > 100 µM (inactive) | > 100 µM (inactive) | > 100 µM (inactive) | > 100 µM (inactive) | 22.8 µM (inactive) | > 81.3 µM (inactive) | > 100 µM (inactive) | > 100 µM (inactive) | > 100 µM (inactive) | > 100 µM (inactive) | > 100 µM (inactive) | > 100 µM (inactive) | > 100 µM (inactive) | > 100 µM (inactive) | > 100 µM (inactive) | > 92.3 µM (inactive) | > 64.6 µM (inactive) | > 56.9 µM (inactive) | –
11 | COc1cc2cc3c4cc(OC)c(OC)cc4cc[n+]3cc2cc1OC | > 100 µM (inactive) | > 100 µM (inactive) | > 30.6 µM (inactive) | > 100 µM (inactive) | > 100 µM (inactive) | > 31.6 µM (inactive) | 71.4 µM (inactive) | > 76.7 µM (inactive) | 16.4 µM (inactive) | > 100 µM (inactive) | > 100 µM (inactive) | > 100 µM (inactive) | > 82.2 µM (inactive) | 15.2 µM (inactive) | 9.46 µM (inactive) | > 100 µM (inactive) | > 100 µM (inactive) | > 100 µM (inactive) | > 100 µM (inactive) | –
